Several values for one entry are separate records, joined by “and”; a condition that tells them apart may be missing. Equal entries are not always repeated. Inconclusive results and toxic doses are left out. No stated cut-off is given here; in the data, active means T/C of 150% or more; inactive means T/C below 125%.
Test system: L1210 leukemia ip in BDF1 mice, survival T/C
Assay: NCI In Vivo Anticancer Drug Screen. Data for tumor model L1210 Leukemia (intraperitoneal) in B6D2F1 (BDF1) mice
Settings: endpoint: mean survival time, higher = longer survival
Outline: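 Value reflects the ratio of survival in compound-treated mice to survival in vehicle-treated controls, with both groups carrying the same transplanted tumor.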

[1] = dose: 25.0 mg/kg/injection, schedule: Q01DX009 (ip), vehicle: saline
[2] = dose: 100.0 mg/kg/injection, schedule: Q01DX009 (ip), vehicle: saline
[3] = dose: 400.0 mg/kg/injection, schedule: Q04DX003 (ip), vehicle: saline
[4] = dose: 100.0 mg/kg/injection, schedule: Q04DX003 (ip), vehicle: saline with Tween-80
[5] = dose: 200.0 mg/kg/injection, schedule: Q04DX003 (ip), vehicle: saline with Tween-80
[6] = dose: 400.0 mg/kg/injection, schedule: Q04DX003 (ip), vehicle: saline with Tween-80
[7] = dose: 100.0 mg/kg/injection, schedule: Q01DX009 (ip), vehicle: Klucel (hydroxypropylcellulose) (HPC)
[8] = dose: 50.0 mg/kg/injection, schedule: Q04DX002 (ip), vehicle: Klucel (hydroxypropylcellulose) (HPC)
[9] = dose: 12.5 mg/kg/injection, schedule: Q01DX009 (ip), vehicle: saline with Tween-80
[10] = dose: 25.0 mg/kg/injection, schedule: Q01DX009 (ip), vehicle: saline with Tween-80
[11] = dose: 50.0 mg/kg/injection, schedule: Q01DX009 (ip), vehicle: saline with Tween-80
[12] = dose: 100.0 mg/kg/injection, schedule: Q01DX001 (ip), vehicle: saline
[13] = dose: 200.0 mg/kg/injection, schedule: Q01DX001 (ip), vehicle: saline
[14] = dose: 400.0 mg/kg/injection, schedule: Q01DX001 (ip), vehicle: saline
[15] = dose: 100.0 mg/kg/injection, schedule: Q04DX003 (ip), vehicle: saline
[16] = dose: 200.0 mg/kg/injection, schedule: Q01DX009 (ip), vehicle: Klucel (hydroxypropylcellulose) (HPC)
[17] = dose: 100.0 mg/kg/injection, schedule: Q01DX001 (ip), vehicle: Klucel (hydroxypropylcellulose) (HPC)
[18] = dose: 200.0 mg/kg/injection, schedule: Q01DX001 (ip), vehicle: Klucel (hydroxypropylcellulose) (HPC)
[19] = dose: 100.0 mg/kg/injection, schedule: Q01DX009 (ip), vehicle: saline with Tween-80
[20] = dose: 200.0 mg/kg/injection, schedule: Q01DX009 (ip), vehicle: saline with Tween-80

Measured: T/C

O=C(C(F)(F)F)C(F)(F)F
inactive: dose: 6.25 mg/kg/injection, schedule: Q01DX009 (ip), vehicle: saline 95 % of control | dose: 12.5 mg/kg/injection, schedule: Q01DX009 (ip), vehicle: saline 98 % of control | [1] 114 % of control | [2] 88 % of control

O=c1c2cc([N+](=O)[O-])cc3c2-c2c4c(cc([N+](=O)[O-])cc14)c(O)c1cc([N+](=O)[O-])cc(c3=O)c21
inactive: dose: 100.0 mg/kg/injection, schedule: Q04DX003 (ip), vehicle: acetone 123 % of control | dose: 200.0 mg/kg/injection, schedule: Q04DX003 (ip), vehicle: acetone 120 % of control | dose: 266.0 mg/kg/injection, schedule: Q04DX003 (ip), vehicle: saline 111 % of control | [3] 116 % of control

S=P1(c2ccccc2)Nc2cc3ccccc3cc2N1
inactive: [4] 97 % of control | [5] 100 % of control | [6] 96 % of control

CC(C)=CN1CCOCC1
inactive: dose: 25.0 mg/kg/injection, schedule: Q01DX009 (ip), vehicle: Klucel (hydroxypropylcellulose) (HPC) 94 % of control | dose: 50.0 mg/kg/injection, schedule: Q01DX009 (ip), vehicle: Klucel (hydroxypropylcellulose) (HPC) 92 % of control | [7] 97 % of control and 106 % of control | dose: 100.0 mg/kg/injection, schedule: Q04DX003 (ip), vehicle: Klucel (hydroxypropylcellulose) (HPC) 100 % of control | dose: 200.0 mg/kg/injection, schedule: Q04DX003 (ip), vehicle: Klucel (hydroxypropylcellulose) (HPC) 100 % of control | dose: 400.0 mg/kg/injection, schedule: Q04DX003 (ip), vehicle: Klucel (hydroxypropylcellulose) (HPC) 102 % of control

COc1ccc(/C=C/c2nccc3ccccc23)cc1OC
inactive: [8] 105 % of control | dose: 100.0 mg/kg/injection, schedule: Q04DX002 (ip), vehicle: Klucel (hydroxypropylcellulose) (HPC) 102 % of control | dose: 200.0 mg/kg/injection, schedule: Q04DX002 (ip), vehicle: Klucel (hydroxypropylcellulose) (HPC) 96 % of control and 108 % of control | dose: 400.0 mg/kg/injection, schedule: Q04DX002 (ip), vehicle: Klucel (hydroxypropylcellulose) (HPC) 89 % of control

O=Cc1[nH]c(=S)[nH]c(=O)c1Cc1cc([N+](=O)[O-])ccc1O
inactive: dose: 100.0 mg/kg/injection, schedule: Q01DX001 (ip), vehicle: saline with Tween-80 93 % of control | dose: 200.0 mg/kg/injection, schedule: Q01DX001 (ip), vehicle: saline with Tween-80 104 % of control | dose: 400.0 mg/kg/injection, schedule: Q01DX001 (ip), vehicle: saline with Tween-80 95 % of control

CCCCCCC(C)N(CC)CCOC(=O)c1ccc(N)cc1 (configuration not stated)
inactive: dose: 75.0 mg/kg/injection, schedule: Q01DX001 (ip), vehicle: other 94 % of control | dose: 150.0 mg/kg/injection, schedule: Q01DX001 (ip), vehicle: other 98 % of control

O=c1c2ccccc2sc2c1ccc1c2ccc2c(=O)c3ccccc3sc21
inactive: [4] 96 % of control | [5] 87 % of control

O=C(Nc1ccc(S(=O)(=O)F)cc1)/C(=C/c1ccc([N+](=O)[O-])cc1)c1ccccc1
inactive: [9] 102 % of control | [10] 109 % of control | [11] 98 % of control

O=C(CC(Cl)(C(F)(F)F)C(F)(F)F)c1cccc([N+](=O)[O-])c1
inactive: [9] 91 % of control | dose: 12.5 mg/kg/injection, schedule: Q04DX003 (ip), vehicle: saline with Tween-80 96 % of control | [10] 96 % of control | dose: 25.0 mg/kg/injection, schedule: Q04DX003 (ip), vehicle: saline with Tween-80 98 % of control | [11] 96 % of control | dose: 50.0 mg/kg/injection, schedule: Q04DX003 (ip), vehicle: saline with Tween-80 100 % of control

N=C(N)S/C=C/CSC(=N)N
inactive: dose: 10.0 mg/kg/injection, schedule: Q01DX001 (ip), vehicle: saline 90 % of control | dose: 20.0 mg/kg/injection, schedule: Q01DX001 (ip), vehicle: saline 95 % of control | dose: 40.0 mg/kg/injection, schedule: Q01DX001 (ip), vehicle: saline 95 % of control | dose: 80.0 mg/kg/injection, schedule: Q01DX001 (ip), vehicle: saline 97 % of control

O=C(N/N=C\c1c(Cl)cccc1Cl)N/N=C/c1c(Cl)cccc1Cl
inactive: dose: 100.0 mg/kg/injection, schedule: Q04DX002 (ip), vehicle: saline with Tween-80 89 % of control | dose: 200.0 mg/kg/injection, schedule: Q04DX002 (ip), vehicle: saline with Tween-80 99 % of control | dose: 400.0 mg/kg/injection, schedule: Q04DX002 (ip), vehicle: saline with Tween-80 95 % of control

COc1ccc(C(=O)c2ccccc2C)cc1OC
inactive: [12] 95 % of control | [13] 97 % of control | [14] 91 % of control

CCC(=O)NCC1(c2ccccc2)CCN(CC2COc3ccccc3O2)CC1 (configuration not stated)
inactive: [1] 108 % of control | dose: 50.0 mg/kg/injection, schedule: Q01DX009 (ip), vehicle: saline 100 % of control | [2] 93 % of control | [15] 102 % of control

O=c1nc(SCc2ccccc2)c(SCc2ccccc2)n[nH]1
inactive: [12] 95 % of control | [13] 98 % of control | [14] 91 % of control

COc1ccc(Br)c([N+](=O)[O-])c1
inactive: [12] 103 % of control | [13] 97 % of control | [14] 103 % of control

Cc1cccc(C)c1N=C/C=C/c1ccccc1
inactive: [7] 100 % of control | [16] 88 % of control | dose: 400.0 mg/kg/injection, schedule: Q01DX009 (ip), vehicle: Klucel (hydroxypropylcellulose) (HPC) 102 % of control

CC1=CC(=O)C=CC1(C)C
inactive: [17] 100 % of control | [7] 94 % of control | [18] 100 % of control | [16] 94 % of control | dose: 400.0 mg/kg/injection, schedule: Q01DX001 (ip), vehicle: Klucel (hydroxypropylcellulose) (HPC) 108 % of control

COc1cc(N)c(C(F)(F)F)cc1OC
inactive: [19] 96 % of control | [4] 103 % of control | [20] 94 % of control | [5] 105 % of control | dose: 400.0 mg/kg/injection, schedule: Q01DX009 (ip), vehicle: saline with Tween-80 104 % of control | [6] 104 % of control

CCC/C=C/C(O)C1CCCCC1 (configuration not stated)
inactive: [11] 92 % of control | [19] 95 % of control | [20] 95 % of control

Cc1ccc(S(=O)(=O)NNS(=O)(=O)c2ccc(C)cc2)cc1
inactive: [17] 109 % of control | [18] 109 % of control

CNC(=O)C1C(c2ccc(OC)cc2)C1c1ccc(OC)cc1 (configuration not stated)
inactive: dose: 12.5 mg/kg/injection, schedule: Q04DX002 (ip), vehicle: Klucel (hydroxypropylcellulose) (HPC) 92 % of control | dose: 25.0 mg/kg/injection, schedule: Q04DX002 (ip), vehicle: Klucel (hydroxypropylcellulose) (HPC) 92 % of control | [8] 95 % of control

O=C(O)CCCCCn1nnc2c(=O)[nH]cnc21
inactive: [15] 106 % of control | dose: 200.0 mg/kg/injection, schedule: Q04DX003 (ip), vehicle: saline 106 % of control | [3] 101 % of control

Reference: PubChem BioAssay AID248 (DTP/NCI, 2004)
